# The source made the active and inactive calls. No rule for the calls is given here.
# System: CCRIS mutagenicity, Ames/micronucleus/aberration tests
# Experiment: CCRIS mutagenicity studies
# [1] = Test System: AMES SALMONELLA TYPHIMURIUM, Strain/Indicator: TA98, Metabolic Activation: NONE, Method: STANDARD PLATE
# [2] = Test System: AMES SALMONELLA TYPHIMURIUM, Strain/Indicator: TA100, Metabolic Activation: NONE, Method: STANDARD PLATE
# [3] = Test System: AMES SALMONELLA TYPHIMURIUM, Strain/Indicator: TA98, Metabolic Activation: NONE, Method: PREINCUBATION
# [4] = Test System: AMES SALMONELLA TYPHIMURIUM, Strain/Indicator: TA100, Metabolic Activation: NONE, Method: PREINCUBATION
smiles,measurement,setting,value
NNC(=O)NC(=O)NN,mutagenic call,"Test System: E. COLI WP2, Strain/Indicator: WP2, Metabolic Activation: NONE, Method: STANDARD PLATE",active; positive
NC1CCC(N)CC1 (stereo not given),mutagenic call,"Test System: AMES SALMONELLA TYPHIMURIUM, Strain/Indicator: TA97, Metabolic Activation: NONE, Method: STANDARD PLATE",inactive; negative
same,mutagenic call,"Test System: AMES SALMONELLA TYPHIMURIUM, Strain/Indicator: TA97, Metabolic Activation: RAT, LIVER, S-9, Method: STANDARD PLATE",inactive; negative
same,mutagenic call,[1],inactive; negative
same,mutagenic call,"Test System: AMES SALMONELLA TYPHIMURIUM, Strain/Indicator: TA98, Metabolic Activation: RAT, LIVER, S-9, Method: STANDARD PLATE",inactive; negative
same,mutagenic call,[2],inactive; negative
same,mutagenic call,"Test System: AMES SALMONELLA TYPHIMURIUM, Strain/Indicator: TA100, Metabolic Activation: RAT, LIVER, S-9, Method: STANDARD PLATE",inactive; negative
same,mutagenic call,"Test System: AMES SALMONELLA TYPHIMURIUM, Strain/Indicator: TA1535, Metabolic Activation: NONE, Method: STANDARD PLATE",inactive; negative
same,mutagenic call,"Test System: AMES SALMONELLA TYPHIMURIUM, Strain/Indicator: TA1535, Metabolic Activation: RAT, LIVER, S-9, Method: STANDARD PLATE",inactive; negative
[N-]=[N+]=NC[C@H]1O[C@H](O)[C@H](O)[C@@H](O)[C@@H]1O,mutagenic call,[1],inactive; negative
same,mutagenic call,[2],active; positive
Nc1ccc2sncc2c1,mutagenic call,"Test System: AMES SALMONELLA TYPHIMURIUM, Strain/Indicator: TA100, Metabolic Activation: S-9, Method: STANDARD PLATE",active; positive
CC(=O)OCc1ccc([N+](=O)[O-])cc1,mutagenic call,[3],inactive; negative
same,mutagenic call,"Test System: AMES SALMONELLA TYPHIMURIUM, Strain/Indicator: TA100(NR), Metabolic Activation: NONE, Method: PREINCUBATION",inactive; negative
same,mutagenic call,[4],active; positive
same,mutagenic call,"Test System: AMES SALMONELLA TYPHIMURIUM, Strain/Indicator: TA100, Metabolic Activation: RAT, LIVER, S-9, AROCLOR 1254, Method: PREINCUBATION",active; positive
Oc1cc(O)c2c(c1)O[C@H](c1cc(O)c(O)c(O)c1)[C@H](O)C2,mutagenic call,"End Point: In vitro chromosomal aberrations, Test System: Chinese hamster (CHL/IU) cells, Metabolic Activation: None","active; positive (structural changes: gaps, breaks, aberrations)"
same,mutagenic call,"Test System: Ames Salmonella typhimurium, Strain/Indicator: TA102, Metabolic Activation: None, Method: Preincubation",inactive; negative
same,mutagenic call,"Test System: Ames Salmonella typhimurium, Strain/Indicator: TA102, Metabolic Activation: Rat, Liver, S-9, Aroclor 1254 in 0.154 M KCl, Method: Preincubation",inactive; negative
same,mutagenic call,"Test System: E. coli, Strain/Indicator: WP2 uvrA/pKM101, Metabolic Activation: None, Method: Preincubation",inactive; negative
Cc1ccc(Cl)cc1,mutagenic call,"Test System: AMES SALMONELLA TYPHIMURIUM, Strain/Indicator: TA97, Metabolic Activation: HAMSTER, LIVER, S-9, AROCLOR 1254 (10%), Method: PREINCUBATION",inactive; negative
same,mutagenic call,"Test System: AMES SALMONELLA TYPHIMURIUM, Strain/Indicator: TA97, Metabolic Activation: HAMSTER, LIVER, S-9, AROCLOR 1254 (30%), Method: PREINCUBATION",inactive; negative
same,mutagenic call,"Test System: AMES SALMONELLA TYPHIMURIUM, Strain/Indicator: TA97, Metabolic Activation: NONE, Method: PREINCUBATION",inactive; negative
same,mutagenic call,"Test System: AMES SALMONELLA TYPHIMURIUM, Strain/Indicator: TA97, Metabolic Activation: RAT, LIVER, S-9, AROCLOR 1254 (10%), Method: PREINCUBATION",inactive; negative
same,mutagenic call,"Test System: AMES SALMONELLA TYPHIMURIUM, Strain/Indicator: TA97, Metabolic Activation: RAT, LIVER, S-9, AROCLOR 1254 (30%), Method: PREINCUBATION",inactive; negative
same,mutagenic call,"Test System: AMES SALMONELLA TYPHIMURIUM, Strain/Indicator: TA98, Metabolic Activation: HAMSTER, LIVER, S-9, AROCLOR 1254 (10%), Method: PREINCUBATION",inactive; negative
same,mutagenic call,"Test System: AMES SALMONELLA TYPHIMURIUM, Strain/Indicator: TA98, Metabolic Activation: HAMSTER, LIVER, S-9, AROCLOR 1254 (30%), Method: PREINCUBATION",inactive; negative
same,mutagenic call,[3],inactive; negative
same,mutagenic call,"Test System: AMES SALMONELLA TYPHIMURIUM, Strain/Indicator: TA98, Metabolic Activation: RAT LIVER S-9, PHENOBARBITAL AND BETA-NAPHTHOFLAVONE, Method: PREINCUBATION",inactive; negative
same,mutagenic call,"Test System: AMES SALMONELLA TYPHIMURIUM, Strain/Indicator: TA98, Metabolic Activation: RAT, LIVER, S-9, AROCLOR 1254 (10%), Method: PREINCUBATION",inactive; negative
same,mutagenic call,"Test System: AMES SALMONELLA TYPHIMURIUM, Strain/Indicator: TA98, Metabolic Activation: RAT, LIVER, S-9, AROCLOR 1254 (30%), Method: PREINCUBATION",inactive; negative
same,mutagenic call,"Test System: AMES SALMONELLA TYPHIMURIUM, Strain/Indicator: TA100, Metabolic Activation: HAMSTER, LIVER, S-9, AROCLOR 1254 (10%), Method: PREINCUBATION",inactive; negative
same,mutagenic call,"Test System: AMES SALMONELLA TYPHIMURIUM, Strain/Indicator: TA100, Metabolic Activation: HAMSTER, LIVER, S-9, AROCLOR 1254 (30%), Method: PREINCUBATION",inactive; negative
same,mutagenic call,[4],inactive; negative
same,mutagenic call,"Test System: AMES SALMONELLA TYPHIMURIUM, Strain/Indicator: TA100, Metabolic Activation: RAT LIVER S-9, PHENOBARBITAL AND BETA-NAPHTHOFLAVONE, Method: PREINCUBATION",inactive; negative
same,mutagenic call,"Test System: AMES SALMONELLA TYPHIMURIUM, Strain/Indicator: TA100, Metabolic Activation: RAT, LIVER, S-9, AROCLOR 1254 (10%), Method: PREINCUBATION",inactive; negative
same,mutagenic call,"Test System: AMES SALMONELLA TYPHIMURIUM, Strain/Indicator: TA100, Metabolic Activation: RAT, LIVER, S-9, AROCLOR 1254 (30%), Method: PREINCUBATION",inactive; negative
same,mutagenic call,"Test System: AMES SALMONELLA TYPHIMURIUM, Strain/Indicator: TA102, Metabolic Activation: NONE, Method: PREINCUBATION",inactive; negative
same,mutagenic call,"Test System: AMES SALMONELLA TYPHIMURIUM, Strain/Indicator: TA102, Metabolic Activation: RAT LIVER S-9, PHENOBARBITAL AND BETA-NAPHTHOFLAVONE, Method: PREINCUBATION",inactive; negative
same,mutagenic call,"Test System: AMES SALMONELLA TYPHIMURIUM, Strain/Indicator: TA104, Metabolic Activation: NONE, Method: PREINCUBATION",inactive; negative
same,mutagenic call,"Test System: AMES SALMONELLA TYPHIMURIUM, Strain/Indicator: TA104, Metabolic Activation: RAT LIVER S-9, PHENOBARBITAL AND BETA-NAPHTHOFLAVONE, Method: PREINCUBATION",inactive; negative
same,mutagenic call,"Test System: AMES SALMONELLA TYPHIMURIUM, Strain/Indicator: TA1535, Metabolic Activation: HAMSTER, LIVER, S-9, AROCLOR 1254 (10%), Method: PREINCUBATION",inactive; negative
same,mutagenic call,"Test System: AMES SALMONELLA TYPHIMURIUM, Strain/Indicator: TA1535, Metabolic Activation: HAMSTER, LIVER, S-9, AROCLOR 1254 (30%), Method: PREINCUBATION",inactive; negative
same,mutagenic call,"Test System: AMES SALMONELLA TYPHIMURIUM, Strain/Indicator: TA1535, Metabolic Activation: NONE, Method: PREINCUBATION",inactive; negative
same,mutagenic call,"Test System: AMES SALMONELLA TYPHIMURIUM, Strain/Indicator: TA1535, Metabolic Activation: RAT LIVER S-9, PHENOBARBITAL AND BETA-NAPHTHOFLAVONE, Method: PREINCUBATION",inactive; negative
same,mutagenic call,"Test System: AMES SALMONELLA TYPHIMURIUM, Strain/Indicator: TA1535, Metabolic Activation: RAT, LIVER, S-9, AROCLOR 1254 (10%), Method: PREINCUBATION",inactive; negative
same,mutagenic call,"Test System: AMES SALMONELLA TYPHIMURIUM, Strain/Indicator: TA1535, Metabolic Activation: RAT, LIVER, S-9, AROCLOR 1254 (30%), Method: PREINCUBATION",inactive; negative
same,mutagenic call,"Test System: AMES SALMONELLA TYPHIMURIUM, Strain/Indicator: TA1537, Metabolic Activation: HAMSTER, LIVER, S-9, AROCLOR 1254 (30%), Method: PREINCUBATION",inactive; negative
same,mutagenic call,"Test System: AMES SALMONELLA TYPHIMURIUM, Strain/Indicator: TA1537, Metabolic Activation: NONE, Method: PREINCUBATION",inactive; negative
same,mutagenic call,"Test System: AMES SALMONELLA TYPHIMURIUM, Strain/Indicator: TA1537, Metabolic Activation: RAT LIVER S-9, PHENOBARBITAL AND BETA-NAPHTHOFLAVONE, Method: PREINCUBATION",inactive; negative
same,mutagenic call,"Test System: AMES SALMONELLA TYPHIMURIUM, Strain/Indicator: TA1537, Metabolic Activation: RAT, LIVER, S-9, AROCLOR 1254 (30%), Method: PREINCUBATION",inactive; negative
same,mutagenic call,"Test System: E.COLI, Strain/Indicator: WP2UVRA/PKM101, Metabolic Activation: NONE, Method: PREINCUBATION",inactive; negative
same,mutagenic call,"Test System: E.COLI, Strain/Indicator: WP2UVRA/PKM101, Metabolic Activation: RAT LIVER S-9, PHENOBARBITAL AND BETA-NAPHTHOFLAVONE, Method: PREINCUBATION",inactive; negative
same,mutagenic call,"Test System: E.COLI, Strain/Indicator: WP2UVRA, Metabolic Activation: NONE, Method: PREINCUBATION",inactive; negative
same,mutagenic call,"Test System: E.COLI, Strain/Indicator: WP2UVRA, Metabolic Activation: RAT LIVER S-9, PHENOBARBITAL AND BETA-NAPHTHOFLAVONE, Method: PREINCUBATION",inactive; negative

# Source: PubChem BioAssay AID1259407 (Chemical Carcinogenesis Research Information System (CCRIS), 2018)
